Reference: publication PMC3669347, “A Multi-System Approach Assessing the Interaction of Anticonvulsants with P-gp” (PLoS ONE, 2013)
Read-outs that look alike come from different tables or passages of the source. Each block holds one compound with its values, some of them ahead of it.

How the values were obtained:
[1] = molecular target: T1, P-gp (Homo sapiens, UniProt P08183); design: induced multi-drug resistance through over-expression of P-gp; endogenous in cells; host or cells: CEM (low P-gp) and VBL100 (vinblastine-selected, high P-gp) cells; conditions: cited from earlier work
[2] = tested on: human P-gp; conditions: cited from earlier work; for Substrate of P-gp (published evidence): Transfected human P-gp cell lines, equilibrium
[3] = molecular target: T1, P-gp; assay: Concentration equilibrium transport assay in Caco-2 cells; conditions: for Polarised transport in Caco-2 concentration equilibrium assay: 5µM drug, 4 hour time course, ±300nM tariquidar; for Interaction with P-gp observed: Caco-2 (equilibrium method)
[4] = tested on: mouse P-gp; conditions: Transfected mouse P-gp cell line; bi-directional transwell method; cited from earlier work
[5] = molecular target: T1, P-gp; assay: Cellular accumulation assay in CEM and VBL100 cells; conditions: for Accumulation in VBL100 cells compared with CEM cells / Effect of tariquidar on accumulation in VBL100 cells: 5µM drug, 30 minutes; for Effect of tariquidar on accumulation in VBL100 cells: 300nM tariquidar; for Interaction with P-gp observed: CEM/VBL cells
[6] = molecular target: T1, P-gp; assay: Concentration equilibrium transport assay in LLC-PK1±P-gp cells; conditions: for Transport into the apical compartment, LLC-PK1-P-gp vs parental LLC-PK1 cells: 5µM drug, 6 hour time course, ±300nM tariquidar; for Interaction with P-gp observed: LLC-PK1±P-gp (equilibrium method)
[7] = tested on: P-gp; conditions: cited from earlier work
[8] = tested on: human P-gp; conditions: Transfected human P-gp cell lines; bi-directional transwell; cited from earlier work
[9] = molecular target: T2, P-gp (Sus scrofa, UniProt K7GMM7); assay: Permeability assay in primary porcine brain endothelial cells (PBECs); type: in vitro ADME; conditions: for Effect of verapamil or tariquidar treatment on apical to basolateral Papp: 6µM drug, 1 hour, 100µM verapamil, 300nM tariquidar; for Interaction with P-gp observed: Primary porcine brain endothelial
Procedure: The porcine brain microvessel isolation and culture protocol was based on previously published papers, [29]with modifications. Briefly, brains from six pigs (Cheale Meats Ltd., Brentwood, UK) were washed. The grey matter was homogenised, filtered, digested, centrifuged and microvessels cryopreserved.
The PBECs were seeded onto rat-tail collagen/fibronectin-coated transwell filter inserts at a density of 1×10^5cells/cm^2. […] This was conducted to elevate intracellular cAMP and thereby encourage differentiation of BBB phenotype including tight junctions. Cell monolayers were used when TEER exceeded 340 Ω.cm^2. For permeability assays, DMEM without phenol red with added HEPES (25mM) and 0.1% BSA was pH adjusted to 7.4 and used as transport medium. […] Samples were taken from both compartments.Apparent permeability (Papp) in cm/s for the compounds studied was calculated as previously described.

[10] = tested on: P-gp; conditions: cited from earlier work; for Substrate of P-gp (published evidence): MDR1 KO Mouse; for Brain accumulation affected by rodent P-gp: MDR1 knockout mice
[11] = tested on: P-gp; conditions: cited from earlier work; remark: listed apart in the source
[12] = tested on: P-gp; conditions: Microdialysis/brain access in rodent models; cited from earlier work
[13] = molecular target: T1, P-gp; conditions: for Effect of tariquidar on accumulation in hCMEC/D3 cells: 5µM drug, 30 minutes, 300nM tariquidar; for Interaction with P-gp observed: Human brain endothelial cell line (hCMEC/D3)
Procedure: Cells were equilibrated in transport buffer (HBSS containing 25mM HEPES and 0.1% (w/v) bovine serum albumin at pH 7.4) at 37°C with accumulation assays performed as previously described [24], [25].

[14] = molecular target: T1, P-gp; design: induced multi-drug resistance through over-expression of P-gp; endogenous in cells; host or cells: CEM (low P-gp) and VBL100 (vinblastine-selected, high P-gp) cells; method as in PMID 12954800; conditions: LLC-PK1-P-gp cells, 100µM drug; cited from earlier work
[15] = molecular target: T1, P-gp; design: induced multi-drug resistance through over-expression of P-gp; endogenous in cells; host or cells: CEM (low P-gp) and VBL100 (vinblastine-selected, high P-gp) cells; method as in PMID 11318771, PMID 16882549; conditions: Caco-2 bi-directional transwell; cited from earlier work
[16] = molecular target: T1, P-gp; assay: X. laevis oocyte P-gp drug transport assay (efflux and accumulation); conditions: for Accumulation in oocytes expressing human P-gp vs water-injected oocytes: 20µM drug ±40µM PSC833, 1 hour; for Accumulation in oocytes expressing human P-gp vs water-injected oocytes / Efflux from P-gp injected oocytes vs water-injected oocytes: 22°C; for Interaction with P-gp observed: Xenopus laevis oocytes expressing human P-gp; for Efflux from P-gp injected oocytes vs water-injected oocytes: intra-oocyte 1µM digoxin or 5µM phenytoin, 45 minutes
[17] = molecular target: T1, P-gp; assay: Concentration equilibrium transport assay in MDCKII±P-gp cells; conditions: for Transport into the apical compartment, MDCKII-P-gp vs parental MDCKII cells: 5µM drug, 6 hour time course, ±300nM tariquidar; for Interaction with P-gp observed: MDCK±P-gp (equilibrium method)
[18] = molecular target: T2, P-gp; design: method as in PMID 12954800; conditions: porcine brain endothelial cells, cited from earlier work
[19] = molecular target: T1, P-gp; design: induced multi-drug resistance through over-expression of P-gp; endogenous in cells; host or cells: CEM (low P-gp) and VBL100 (vinblastine-selected, high P-gp) cells; method as in PMID 17326793; conditions: Primary human brain endothelial cells; cited from earlier work
[20] = molecular target: T1, P-gp; design: induced multi-drug resistance through over-expression of P-gp; endogenous in cells; host or cells: CEM (low P-gp) and VBL100 (vinblastine-selected, high P-gp) cells; method as in PMID 17326793; conditions: Primary epileptic derived human brain endothelial cells; cited from earlier work

T2 sequence (K7GMM7 1-1248): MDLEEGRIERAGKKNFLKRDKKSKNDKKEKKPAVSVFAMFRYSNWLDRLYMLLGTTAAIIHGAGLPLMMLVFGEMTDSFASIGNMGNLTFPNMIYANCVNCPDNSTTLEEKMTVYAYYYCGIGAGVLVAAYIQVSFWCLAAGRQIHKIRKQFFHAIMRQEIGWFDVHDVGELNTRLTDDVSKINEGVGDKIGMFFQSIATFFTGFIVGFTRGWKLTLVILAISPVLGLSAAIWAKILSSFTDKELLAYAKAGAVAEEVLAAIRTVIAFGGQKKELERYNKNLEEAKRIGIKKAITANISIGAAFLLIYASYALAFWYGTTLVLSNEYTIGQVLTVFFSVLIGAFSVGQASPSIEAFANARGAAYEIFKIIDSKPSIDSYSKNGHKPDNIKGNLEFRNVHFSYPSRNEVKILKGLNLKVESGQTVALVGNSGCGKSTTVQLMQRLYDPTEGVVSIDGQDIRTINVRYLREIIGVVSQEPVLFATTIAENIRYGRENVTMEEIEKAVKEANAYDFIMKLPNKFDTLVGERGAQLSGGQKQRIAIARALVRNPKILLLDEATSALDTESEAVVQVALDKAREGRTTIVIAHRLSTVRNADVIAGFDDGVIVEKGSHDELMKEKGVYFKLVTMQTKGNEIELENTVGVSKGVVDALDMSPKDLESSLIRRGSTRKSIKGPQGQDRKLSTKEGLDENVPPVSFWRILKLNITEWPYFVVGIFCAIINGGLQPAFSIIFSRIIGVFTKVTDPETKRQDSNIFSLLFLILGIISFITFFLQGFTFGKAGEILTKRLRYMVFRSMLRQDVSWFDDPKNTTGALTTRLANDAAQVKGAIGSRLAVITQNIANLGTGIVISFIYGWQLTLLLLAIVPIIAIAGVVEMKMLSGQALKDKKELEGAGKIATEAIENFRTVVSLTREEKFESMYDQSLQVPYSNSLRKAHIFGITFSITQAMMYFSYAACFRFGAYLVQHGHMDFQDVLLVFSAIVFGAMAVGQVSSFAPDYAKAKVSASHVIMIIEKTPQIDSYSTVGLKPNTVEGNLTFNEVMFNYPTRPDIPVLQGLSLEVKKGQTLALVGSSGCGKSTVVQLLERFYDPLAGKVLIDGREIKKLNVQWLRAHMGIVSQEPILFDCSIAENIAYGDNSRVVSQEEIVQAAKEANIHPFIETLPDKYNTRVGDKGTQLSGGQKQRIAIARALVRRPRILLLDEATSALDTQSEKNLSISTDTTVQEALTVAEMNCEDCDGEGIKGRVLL
T1 sequence (P08183 whole entry): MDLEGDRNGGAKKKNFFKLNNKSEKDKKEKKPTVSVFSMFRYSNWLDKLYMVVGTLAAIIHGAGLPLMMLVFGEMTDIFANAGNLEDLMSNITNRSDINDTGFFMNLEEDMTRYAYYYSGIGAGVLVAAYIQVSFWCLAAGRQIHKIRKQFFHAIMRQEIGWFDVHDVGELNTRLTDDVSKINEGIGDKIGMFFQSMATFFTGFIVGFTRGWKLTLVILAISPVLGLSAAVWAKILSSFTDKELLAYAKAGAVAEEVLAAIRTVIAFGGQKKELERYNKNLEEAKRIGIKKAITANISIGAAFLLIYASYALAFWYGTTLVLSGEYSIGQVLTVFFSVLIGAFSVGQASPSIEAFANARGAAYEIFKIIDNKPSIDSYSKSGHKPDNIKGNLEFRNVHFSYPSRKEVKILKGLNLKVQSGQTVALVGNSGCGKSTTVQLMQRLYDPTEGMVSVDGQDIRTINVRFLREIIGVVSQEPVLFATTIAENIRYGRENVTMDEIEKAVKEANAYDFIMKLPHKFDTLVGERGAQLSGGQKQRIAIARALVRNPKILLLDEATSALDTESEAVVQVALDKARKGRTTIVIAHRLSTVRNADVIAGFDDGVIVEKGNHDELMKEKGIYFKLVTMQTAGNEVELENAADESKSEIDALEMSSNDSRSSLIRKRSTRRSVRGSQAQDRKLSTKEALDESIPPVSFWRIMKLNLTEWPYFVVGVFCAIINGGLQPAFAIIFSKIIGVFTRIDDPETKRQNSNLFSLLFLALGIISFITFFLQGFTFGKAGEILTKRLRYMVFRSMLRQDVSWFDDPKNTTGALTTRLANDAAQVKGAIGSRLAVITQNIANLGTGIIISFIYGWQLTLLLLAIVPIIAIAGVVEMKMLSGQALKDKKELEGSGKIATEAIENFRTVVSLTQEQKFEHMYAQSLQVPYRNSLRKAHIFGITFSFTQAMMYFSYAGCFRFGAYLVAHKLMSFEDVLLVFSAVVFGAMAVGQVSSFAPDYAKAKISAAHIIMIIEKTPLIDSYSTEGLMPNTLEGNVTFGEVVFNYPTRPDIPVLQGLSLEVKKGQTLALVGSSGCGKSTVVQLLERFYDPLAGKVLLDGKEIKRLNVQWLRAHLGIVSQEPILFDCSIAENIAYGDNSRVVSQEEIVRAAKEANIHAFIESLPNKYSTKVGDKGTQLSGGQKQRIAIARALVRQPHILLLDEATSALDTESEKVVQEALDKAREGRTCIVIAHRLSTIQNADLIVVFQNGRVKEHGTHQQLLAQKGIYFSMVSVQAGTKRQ

Compound: CC1(C)CCC(c2ccc(Cl)cc2)=C(CN2CCN(c3ccc(C(=O)NS(=O)(=O)c4ccc(N[C@H](CCN5CCOCC5)CSc5ccccc5)c(S(=O)(=O)C(F)(F)F)c4)cc3)CC2)C1 [ABT-263]
Identified as P-gp substrate with CEM and VBL100 cells [1]: P-gp substrates

Compound: NC(=O)N1c2ccccc2C2OC2c2ccccc21 (centres unmarked) [carbamazepine-10,11-epoxide]
Transport by P-gp, concentration equilibrium approach [2]: does transport

Polarised transport in Caco-2 concentration equilibrium assay [3]: No polarised transport
Interaction with P-gp observed [3]: No
Accumulation in VBL100 cells compared with CEM cells [5]: significantly higher accumulation
Effect of tariquidar on accumulation in VBL100 cells [5]: not inhibited by tariquidar
Interaction with P-gp observed [5]: No
Transport into the apical compartment, LLC-PK1-P-gp vs parental LLC-PK1 cells [6]: no transport
Interaction with P-gp observed [6]: No
Effect of verapamil or tariquidar treatment on apical to basolateral Papp [9]: decrease
Interaction with P-gp observed [9]: No
Effect of tariquidar on accumulation in hCMEC/D3 cells [13]: No effect of tariquidar
Interaction with P-gp observed [13]: No
Accumulation in oocytes expressing human P-gp vs water-injected oocytes [16]: No differences
Interaction with P-gp observed [16]: No
Transport into the apical compartment, MDCKII-P-gp vs parental MDCKII cells [17]: no difference
Interaction with P-gp observed [17]: No
Compound: NC(=O)N1c2ccccc2C=Cc2ccccc21 [carbamazepine]
Substrate of P-gp (published evidence) [4]: No
Stimulation of P-gp ATPase activity (published evidence) [7]: No
Substrate of P-gp (published evidence) [8]: No
Substrate of P-gp (published evidence) [10]: No
Brain accumulation affected by rodent P-gp [10]: not
Calcein-AM P-gp inhibition assay (published evidence) [11]: No
Substrate of P-gp (published evidence) [12]: Yes
Inhibition of the uptake of the P-gp substrate [14]: no inhibition
Substrate of P-gp (published evidence) [15]: No
Substrate of P-gp (published evidence) [2]: No
Transport by P-gp, concentration equilibrium approach [2]: does not transport
Inhibition of uptake of calcein AM ([18]; 10µM): not at 10µM
Inhibition of uptake of calcein AM ([18]; 100µM): able to inhibit

Accumulation in VBL100 cells compared with CEM cells [5]: less accumulation
Effect of tariquidar on accumulation in VBL100 cells [5]: tariquidar restored accumulation
Transport into the apical compartment, LLC-PK1-P-gp vs parental LLC-PK1 cells [6]: significantly higher transport
P-gp substrate status in oocyte expression system ([16]; imatinib data not shown): confirmed to be substrates
Efflux from P-gp injected oocytes vs water-injected oocytes [16]: higher efflux
Effect of PSC-833 on efflux from P-gp injected oocytes ([16]; intra-oocyte 1µM digoxin, 40µM PSC833): reduced
Compound: C[C@H]1O[C@@H](O[C@H]2[C@@H](O)C[C@H](O[C@H]3[C@@H](O)C[C@H](O[C@H]4CC[C@@]5(C)[C@H](CC[C@@H]6[C@@H]5C[C@@H](O)[C@]5(C)[C@@H](C7=CC(=O)OC7)CC[C@]65O)C4)O[C@@H]3C)O[C@@H]2C)C[C@H](O)[C@@H]1O [digoxin]
Polarised transport in Caco-2 concentration equilibrium assay [3]: transported into the apical compartment and this was inhibited by tariquidar
Transport into the apical compartment, MDCKII-P-gp vs parental MDCKII cells [17]: significant increase in apical concentration

Compound: Cc1ccc(NC(=O)c2ccc(CN3CCN(C)CC3)cc2)cc1Nc1nccc(-c2cccnc2)n1 [imatinib]
Identified as P-gp substrate with CEM and VBL100 cells [1]: P-gp substrates

Compound: Nc1nnc(-c2cccc(Cl)c2Cl)c(N)n1 [lamotrigine]
Brain accumulation affected by rodent P-gp [10]: not
Inhibition by tariquidar of P-gp mediated transport ([2]; LLC-PK1-P-gp, concentration equilibrium approach, ref 18 (Luna-Tortos et al)): 60%

Polarised transport in Caco-2 concentration equilibrium assay [3]: No polarised transport
Interaction with P-gp observed [3]: No
Interaction with P-gp observed [5]: No
Interaction with P-gp observed [6]: Yes –“weak”
Effect of verapamil or tariquidar treatment on apical to basolateral Papp [9]: not affected
Interaction with P-gp observed [9]: No
Effect of tariquidar on accumulation in hCMEC/D3 cells [13]: No effect of tariquidar
Interaction with P-gp observed [13]: No
Accumulation in oocytes expressing human P-gp vs water-injected oocytes [16]: No differences
Interaction with P-gp observed [16]: No
Efflux from P-gp injected oocytes vs water-injected oocytes [16]: No difference
Interaction with P-gp observed [17]: Yes –“weak”
Compound: O=C1NC(=O)C(c2ccccc2)(c2ccccc2)N1 [phenytoin]
Substrate of P-gp (published evidence) [4]: Yes/No
Accumulation in VBL100 cells compared with CEM cells [5]: No significant decrease in accumulation or tariquidar inhibition
Transport into the apical compartment, LLC-PK1-P-gp vs parental LLC-PK1 cells [6]: higher in LLC-PK1-P-gp cells and inhibitable by tariquidar
Stimulation of P-gp ATPase activity (published evidence) [7]: No
Substrate of P-gp (published evidence) [8]: No
Substrate of P-gp (published evidence) [10]: Yes/No
Brain accumulation affected by rodent P-gp [10]: affects brain accumulation
Calcein-AM P-gp inhibition assay (published evidence) [11]: No
Substrate of P-gp (published evidence) [19]: No
Substrate of P-gp (published evidence) [12]: Yes
Inhibition of the uptake of the P-gp substrate [14]: no inhibition
Substrate of P-gp (published evidence) [15]: No
Transport into the apical compartment, MDCKII-P-gp vs parental MDCKII cells [17]: more phenytoin was transported into the apical compartment
Substrate of P-gp (published evidence) [2]: Yes
Substrate of P-gp (published evidence) [20]: Yes
